Drawing on patent US20230406885A1, “CYCLIC PEPTIDES FOR TRAPPING INTERLEUKIN-1 BETA” (MERCK SHARP & DOHME LLC, priority 2022, published 2023), this text covers IC50 for 13 molecules.

This assay addresses T1, Recombinant human IL-1β (Homo sapiens, UniProt P01584).
T1 construct: purchased BioLegend 579404
In words: IL-6 assay in MRC5 cells: inhibition of IL-1β induced IL-6 secretion (AlphaLISA). In kind it is cell-based. Conditions: inhibition of IL-1β induced IL-6 secretion in MRC5 cells, read-out: MRC5 IC50. A digest of the protocol: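 IL-1β at 2×EC80 in seeding medium (EMEM, 0.025% BSA) preincubated 1 h at ambient temperature with compound, then 3000 MRC5 cells/well added and incubated overnight at 37 °C, 5% CO2. IL-6 in conditioned medium quantified by AlphaLISA; IC50 from 4-parameter logistic fit.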
(Bead proximity is the source of the signal in Alpha formats.)

[1] abbreviates: IL-1β pre-incubated 1 hour with compound.

Like-named read-outs stand apart in the source and are kept apart here. Where a SMILES comes first, the peptide text is derived from it. [ ]: non-standard residue; d: D form. The star is where a group is joined. Bip(4'-COOH) = N[C@@H](Cc1ccc(-c2ccc(C(=O)O)cc2)cc1)C(=O)O; 1Nal(3S-Me) = C[C@@H](c1cccc2ccccc12)[C@H](N)C(=O)O; Ala(pyrimidin-5-yl) = N[C@@H](Cc1cncnc1)C(=O)O; Phe(4-COOH) = N[C@@H](Cc1ccc(C(=O)O)cc1)C(=O)O; Trp(7-aza) = N[C@@H](Cc1c[nH]c2ncccc12)C(=O)O; h3Pal(5-CN) = N#Cc1cncc(CC[C@H](N)C(=O)O)c1; Pro(4R-NH2) = N[C@H]1CN[C@H](C(=O)O)C1; AEF = NCCOc1ccc(C[C@H](N)C(=O)O)cc1; Ethyl(2-morpholino) = C1CN(CC*)CCO1; hTyr = N[C@@H](CCc1ccc(O)cc1)C(=O)O; hPhe = N[C@@H](CCc1ccccc1)C(=O)O; dDab = NCC[C@@H](N)C(=O)O; dNMeA = CN[C@H](C)C(=O)O; Dab = NCC[C@H](N)C(=O)O; Dap = NC[C@H](N)C(=O)O; Aib = CC(C)(N)C(=O)O

T1 sequence (P01584 117-269): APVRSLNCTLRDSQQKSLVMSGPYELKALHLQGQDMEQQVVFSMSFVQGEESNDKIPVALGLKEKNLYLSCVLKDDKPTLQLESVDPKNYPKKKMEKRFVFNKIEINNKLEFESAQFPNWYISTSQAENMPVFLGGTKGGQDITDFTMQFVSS

As usually defined, the IC50 is the concentration that inhibits the measured activity by half. On to `CC(=O)NCCOc1ccc(C[C@@H]2NC(=O)[C@H](CCc3cncc(C#N)c3)NC(=O)[C@@H](CCN)NC(=O)CNC(=O)[C@H](Cc3cncnc3)NC(=O)[C@H](Cc3ccc(-c4ccc(C(=O)O)cc4)cc3)NC(=O)CNC(=O)[C@@H](C)N(C)C(=O)[C@H](CC(=O)O)NC(=O)[C@H]([C@@H](C)c3cccc4ccccc34)NC(=O)[C@@H]3C[C@@H](N)CN3C(=O)CNC(=O)[C@H](Cc3ccc(C(=O)O)cc3)NC(=O)[C@H](Cc3c[nH]c4ccccc34)NC2=O)cc1` [Example 113] (cyclo([AEF](Ac)W[Phe(4-COOH)]G[Pro(4R-NH2)][1Nal(3S-Me)]D[dNMeA]G[Bip(4'-COOH)][Ala(pyrimidin-5-yl)]G[dDab][h3Pal(5-CN)])), for which the IC50 under setting [1] came out at 0.0918 nM.

`CC(=O)NCCOc1ccc(C[C@@H]2NC(=O)[C@H](CCc3cncc(C#N)c3)NC(=O)[C@@H](CCN)NC(=O)CNC(=O)[C@H](Cc3c[nH]c4ncccc34)NC(=O)[C@H](Cc3ccc(-c4ccc(C(=O)O)cc4)cc3)NC(=O)CNC(=O)[C@@H](C)N(C)C(=O)[C@H](CC(=O)O)NC(=O)[C@H]([C@@H](C)c3cccc4ccccc34)NC(=O)[C@@H]3C[C@@H](N)CN3C(=O)CNC(=O)[C@H](Cc3ccc(C(=O)O)cc3)NC(=O)[C@H](Cc3c[nH]c4ccccc34)NC2=O)cc1` [Example 114] (cyclo([AEF](Ac)W[Phe(4-COOH)]G[Pro(4R-NH2)][1Nal(3S-Me)]D[dNMeA]G[Bip(4'-COOH)][Trp(7-aza)]G[dDab][h3Pal(5-CN)])): under setting [1], the IC50 worked out at 0.0233 nM.

For the molecule `CC(=O)NCCOc1ccc(C[C@@H]2NC(=O)[C@H](CCc3ccccc3)NC(=O)[C@@H](C)NC(=O)[C@H](CCN)NC(=O)[C@H](Cc3c[nH]c4ccccc34)NC(=O)[C@H](Cc3ccc(-c4ccc(C(=O)O)cc4)cc3)NC(=O)CNC(=O)[C@@H](C)N(C)C(=O)[C@H](CC(=O)O)NC(=O)[C@H]([C@@H](C)c3cccc4ccccc34)NC(=O)[C@@H]3C[C@@H](N)CN3C(=O)CNC(=O)[C@H](Cc3ccc(C(=O)O)cc3)NC(=O)[C@H](Cc3c[nH]c4ccccc34)NC2=O)cc1` [Example 115] (cyclo([AEF](Ac)W[Phe(4-COOH)]G[Pro(4R-NH2)][1Nal(3S-Me)]D[dNMeA]G[Bip(4'-COOH)]W[Dab][dA][hPhe])), the IC50 under setting [1] was 0.085 nM.

On to `CC(=O)NCCOc1ccc(C[C@@H]2NC(=O)[C@H](CCc3ccc(O)cc3)NC(=O)[C@@H](C)NC(=O)[C@H](CCN)NC(=O)[C@H](Cc3c[nH]c4ccccc34)NC(=O)[C@H](Cc3ccc(-c4ccc(C(=O)O)cc4)cc3)NC(=O)CNC(=O)[C@@H](C)N(C)C(=O)[C@H](CC(=O)O)NC(=O)[C@H]([C@@H](C)c3cccc4ccccc34)NC(=O)[C@@H]3C[C@@H](N)CN3C(=O)CNC(=O)[C@H](Cc3ccc(C(=O)O)cc3)NC(=O)[C@H](Cc3c[nH]c4ccccc34)NC2=O)cc1` [Example 116] (cyclo([AEF](Ac)W[Phe(4-COOH)]G[Pro(4R-NH2)][1Nal(3S-Me)]D[dNMeA]G[Bip(4'-COOH)]W[Dab][dA][hTyr])), for which the IC50 under setting [1] worked out at 0.492 nM.

On to `CC(=O)NCCOc1ccc(C[C@@H]2NC(=O)[C@H](CCc3ccc(O)cc3)NC(=O)C(C)(C)NC(=O)[C@H](CN)NC(=O)[C@H](Cc3c[nH]c4ccccc34)NC(=O)[C@H](Cc3ccc(-c4ccc(C(=O)O)cc4)cc3)NC(=O)CNC(=O)[C@@H](C)N(C)C(=O)[C@H](CC(=O)O)NC(=O)[C@H]([C@@H](C)c3cccc4ccccc34)NC(=O)[C@@H]3C[C@@H](N)CN3C(=O)CNC(=O)[C@H](Cc3ccc(C(=O)O)cc3)NC(=O)[C@H](Cc3c[nH]c4ccccc34)NC2=O)cc1` [Example 117] (cyclo([AEF](Ac)W[Phe(4-COOH)]G[Pro(4R-NH2)][1Nal(3S-Me)]D[dNMeA]G[Bip(4'-COOH)]W[Dap][Aib][hTyr])), for which the IC50 worked out at 0.16 nM.

`CC(=O)NCCOc1ccc(C[C@@H]2NC(=O)[C@H](C)NC(=O)[C@@H](C)NC(=O)[C@H](CN)NC(=O)[C@H](Cc3c[nH]c4ccccc34)NC(=O)[C@H](Cc3ccc(-c4ccc(C(=O)O)cc4)cc3)NC(=O)CNC(=O)[C@@H](C)N(C)C(=O)[C@H](CC(=O)O)NC(=O)[C@H]([C@@H](C)c3cccc4ccccc34)NC(=O)[C@@H]3C[C@@H](N)CN3C(=O)CNC(=O)[C@H](Cc3ccc(C(=O)O)cc3)NC(=O)[C@H](Cc3c[nH]c4ccccc34)NC2=O)cc1` [Example 118] (cyclo([AEF](Ac)W[Phe(4-COOH)]G[Pro(4R-NH2)][1Nal(3S-Me)]D[dNMeA]G[Bip(4'-COOH)]W[Dap][dA]A)): the half-inhibitory concentration (IC50) worked out at 0.973 nM.

For the molecule `CC(=O)NCCOc1ccc(C[C@@H]2NC(=O)[C@H](CCc3ccc(O)cc3)NC(=O)[C@@H](C)NC(=O)[C@H](CN)NC(=O)[C@H](Cc3c[nH]c4ccccc34)NC(=O)[C@H](Cc3ccc(-c4ccc(C(=O)O)cc4)cc3)NC(=O)CNC(=O)[C@@H](C)N(C)C(=O)[C@H](CC(=O)O)NC(=O)[C@H]([C@@H](C)c3cccc4ccccc34)NC(=O)[C@@H]3C[C@@H](N)CN3C(=O)CNC(=O)[C@H](Cc3ccc(C(=O)O)cc3)NC(=O)[C@H](Cc3c[nH]c4ccccc34)NC2=O)cc1` [Example 119] (cyclo([AEF](Ac)W[Phe(4-COOH)]G[Pro(4R-NH2)][1Nal(3S-Me)]D[dNMeA]G[Bip(4'-COOH)]W[Dap][dA][hTyr])), the IC50 worked out at 0.0602 nM.

Regarding `CC(=O)NCCOc1ccc(C[C@@H]2NC(=O)[C@H](Cc3ccc(OCCN4CCOCC4)cc3)NC(=O)[C@@H](C)NC(=O)[C@H](CN)NC(=O)[C@H](Cc3c[nH]c4ccccc34)NC(=O)[C@H](Cc3ccc(-c4ccc(C(=O)O)cc4)cc3)NC(=O)CNC(=O)[C@@H](C)N(C)C(=O)[C@H](CC(=O)O)NC(=O)[C@H]([C@@H](C)c3cccc4ccccc34)NC(=O)[C@@H]3C[C@@H](N)CN3C(=O)CNC(=O)[C@H](Cc3ccc(C(=O)O)cc3)NC(=O)[C@H](Cc3c[nH]c4ccccc34)NC2=O)cc1` [Example 120] (cyclo([AEF](Ac)W[Phe(4-COOH)]G[Pro(4R-NH2)][1Nal(3S-Me)]D[dNMeA]G[Bip(4'-COOH)]W[Dap][dA]Y(Ethyl(2-morpholino)))), the IC50 came to 0.86 nM.

Regarding `CC(=O)NCCOc1ccc(C[C@@H]2NC(=O)[C@H](CCc3ccc(O)cc3)NC(=O)[C@@H](C)N(C)C(=O)[C@H](CN)NC(=O)[C@H](Cc3c[nH]c4ccccc34)NC(=O)[C@H](Cc3ccc(-c4ccc(C(=O)O)cc4)cc3)NC(=O)CNC(=O)[C@@H](C)N(C)C(=O)[C@H](CC(=O)O)NC(=O)[C@H]([C@@H](C)c3cccc4ccccc34)NC(=O)[C@@H]3C[C@@H](N)CN3C(=O)CNC(=O)[C@H](Cc3ccc(C(=O)O)cc3)NC(=O)[C@H](Cc3c[nH]c4ccccc34)NC2=O)cc1` [Example 121] (cyclo([AEF](Ac)W[Phe(4-COOH)]G[Pro(4R-NH2)][1Nal(3S-Me)]D[dNMeA]G[Bip(4'-COOH)]W[Dap][dNMeA][hTyr])), the IC50 is 0.085 nM.

As for `CC(=O)NCCOc1ccc(C[C@@H]2NC(=O)[C@H](CCc3cncc(C#N)c3)NC(=O)[C@@H](CCN)NC(=O)CNC(=O)[C@H](Cc3c[nH]c4ccccc34)NC(=O)[C@H](Cc3ccc(-c4ccc(C(=O)O)cc4)cc3)NC(=O)CNC(=O)[C@@H](C)N(C)C(=O)[C@H](CC(=O)O)NC(=O)[C@H]([C@@H](C)c3cccc4ccccc34)NC(=O)[C@@H]3C[C@@H](N)CN3C(=O)CNC(=O)[C@H](Cc3ccc(C(=O)O)cc3)NC(=O)[C@H](Cc3c[nH]c4ccccc34)NC2=O)cc1` [Example 122] (cyclo([AEF](Ac)W[Phe(4-COOH)]G[Pro(4R-NH2)][1Nal(3S-Me)]D[dNMeA]G[Bip(4'-COOH)]WG[dDab][h3Pal(5-CN)])), the IC50 is 0.0248 nM.

Regarding `CC(=O)NCCOc1ccc(C[C@@H]2NC(=O)[C@H](CCc3ccc(O)cc3)NC(=O)[C@@H](CCN)NC(=O)CNC(=O)[C@H](Cc3c[nH]c4ccccc34)NC(=O)[C@H](Cc3ccc(-c4ccc(C(=O)O)cc4)cc3)NC(=O)CNC(=O)[C@@H](C)N(C)C(=O)[C@H](CC(=O)O)NC(=O)[C@H]([C@@H](C)c3cccc4ccccc34)NC(=O)[C@@H]3C[C@@H](N)CN3C(=O)CNC(=O)[C@H](Cc3ccc(C(=O)O)cc3)NC(=O)[C@H](Cc3c[nH]c4ccccc34)NC2=O)cc1` [Example 123] (cyclo([AEF](Ac)W[Phe(4-COOH)]G[Pro(4R-NH2)][1Nal(3S-Me)]D[dNMeA]G[Bip(4'-COOH)]WG[dDab][hTyr])), the IC50 came out at 0.0457 nM.

Consider `CC(=O)NCCOc1ccc(C[C@@H]2NC(=O)[C@H](C)NC(=O)[C@@H](C)NC(=O)[C@H](CC(C)C)NC(=O)[C@H](Cc3c[nH]c4ccccc34)NC(=O)[C@H](Cc3ccc(-c4ccc(C(=O)O)cc4)cc3)NC(=O)CNC(=O)[C@@H](C)N(C)C(=O)[C@H](CC(=O)O)NC(=O)[C@H]([C@@H](C)c3cccc4ccccc34)NC(=O)[C@@H]3C[C@@H](N)CN3C(=O)CNC(=O)[C@H](Cc3ccc(C(=O)O)cc3)NC(=O)[C@H](Cc3c[nH]c4ccccc34)NC2=O)cc1` [Example 124] (cyclo([AEF](Ac)W[Phe(4-COOH)]G[Pro(4R-NH2)][1Nal(3S-Me)]D[dNMeA]G[Bip(4'-COOH)]WL[dA]A)), for which the IC50 worked out at 0.636 nM.

Consider `CC(=O)NCCOc1ccc(C[C@@H]2NC(=O)[C@H](CCc3ccc(O)cc3)NC(=O)[C@@H](C)NC(=O)[C@H](CC(C)C)NC(=O)[C@H](Cc3c[nH]c4ccccc34)NC(=O)[C@H](Cc3ccc(-c4ccc(C(=O)O)cc4)cc3)NC(=O)CNC(=O)[C@@H](C)N(C)C(=O)[C@H](CC(=O)O)NC(=O)[C@H]([C@@H](C)c3cccc4ccccc34)NC(=O)[C@@H]3C[C@@H](N)CN3C(=O)CNC(=O)[C@H](Cc3ccc(C(=O)O)cc3)NC(=O)[C@H](Cc3c[nH]c4ccccc34)NC2=O)cc1` [Example 125] (cyclo([AEF](Ac)W[Phe(4-COOH)]G[Pro(4R-NH2)][1Nal(3S-Me)]D[dNMeA]G[Bip(4'-COOH)]WL[dA][hTyr])), for which the IC50 was 0.064 nM.
